Patent US8518924B2, “Agent for inhibiting visceral fat accumulation” (Morinaga Milk Industry Co., Ltd., priority 2005, dated 2013)

Tested on: ZDF (Zucker Diabetic Fatty) rats
Experiment: Inhibitory effect on visceral fat accumulation (mesenteric fat weight) in high-fat-diet-fed ZDF rats
Assay type: in vivo, rat
Conditions: for Effect of inhibiting visceral fat accumulation (in words): Tukey-Kramer's test vs negative sample; for Mesenteric fat weight as percentage of that of the group administered with the negative sample: oral once a day for 44 days, 45th day; for Mesenteric fat weight: male ZDF rats on high fat diet, oral 1 ml per 400 g body weight once a day for 44 days, measured at 45th day
Experimental: In Example 1, an inhibitory effect of a compound having a lophenol skeleton on visceral fat accumulation was investigated by using ZDF (Zucker Diabetic Fatty) rats that are model animals for obese diabetes.
Compound 3 (4-methylcholest-7-en-3-ol), Compound 4 (4-methylergost-7-en-3-ol), and Compound 5 (4-methylstigmast-7-en-3-ol) which were produced in Preparation Example 1 were used as Test Samples 1, 2, and 3, respectively. Each of the test samples was dissolved in DMSO, and a concentration of each of the compounds in each of the test samples was adjusted with distilled water to be 10 μg/ml, thereby preparing Test Samples 1-1, 2-1, and 3-1. Test Samples 1-2, 2-2, and 3-2 each having the concentration of a compound of 1 μg/ml were prepared.
At 45th day from initiation of the administration, mesenteric fat weights were measured as the visceral fat.

CCC(CCC(C)C1CCC2C3=CCC4C(C)C(O)CCC4(C)C3CCC21C)C(C)C (stereo not drawn) [Compound 5, 4-methylstigmast-7-en-3-ol]
Effect of inhibiting visceral fat accumulation (in words) (1 μg/ml): tendency to reduce the visceral fat, but no significant effect was observed | Mesenteric fat weight as percentage of that of the group administered with the negative sample (10 μg/ml solution): 48.7% | Effect of inhibiting visceral fat accumulation (in words) (10 μg/ml): significant effects of inhibiting visceral fat accumulation | Mesenteric fat weight (1 μg/ml solution): 6.10 ± 1.67 g | Mesenteric fat weight (10 μg/ml solution, listed as Test Sample 3-1): 3.36 ± 1.67 g

CC(C)CCCC(C)C1CCC2C3=CCC4C(C)C(O)CCC4(C)C3CCC21C (stereo not drawn) [Compound 3, 4-methylcholest-7-en-3-ol]
Effect of inhibiting visceral fat accumulation (in words) (1 μg/ml): tendency to reduce the visceral fat, but no significant effect was observed | Mesenteric fat weight as percentage of that of the group administered with the negative sample (10 μg/ml solution): 65.0% | Effect of inhibiting visceral fat accumulation (in words) (10 μg/ml): significant effects of inhibiting visceral fat accumulation | Mesenteric fat weight (1 μg/ml solution): 5.63 ± 1.25 g | Mesenteric fat weight (10 μg/ml solution, listed as Test Sample 1-1): 4.48 ± 1.34 g

CC(C)C(C)CCC(C)C1CCC2C3=CCC4C(C)C(O)CCC4(C)C3CCC21C (stereo not drawn) [Compound 4, 4-methylergost-7-en-3-ol]
Effect of inhibiting visceral fat accumulation (in words) (1 μg/ml): tendency to reduce the visceral fat, but no significant effect was observed | Mesenteric fat weight as percentage of that of the group administered with the negative sample (10 μg/ml solution): 54.9% | Effect of inhibiting visceral fat accumulation (in words) (10 μg/ml): significant effects of inhibiting visceral fat accumulation | Mesenteric fat weight (1 μg/ml solution): 5.74 ± 1.57 g | Mesenteric fat weight (10 μg/ml solution, listed as Test Sample 2-1): 3.78 ± 0.26 g
